From a melting point compilation (Tetko et al.; mined from patent text by program, amines drawn as free bases though some values may be those of a salt)

Q: For `CCCCCCCCCCC[C@H](CC(=O)N[C@@H](CO)C(=O)OCc1ccccc1)OC(=O)CCCCCC`, which melting point is on record?
A: The melting point was 46 to 48 °C.

Q: Which melting point does the source give for `CC(=O)Nc1cccc(C(=O)NC(C)(C)C)c1` here?
A: Its melting point is 194 to 195 °C.

Q: For `CC(C)OC(=O)c1ncn2c3cccc(Cl)c3c(=O)n(C)c12`, which melting point is on record?
A: The melting point was 216 to 220 °C.

Q: With `COc1ccc(C2CNC(=O)C2)cc1C1CCCC1` (centres undefined) as the molecule, how does the melting point read?
A: The melting point was 139 °C.

Q: For `CCN1C(=O)C(C)(C)C(=O)N(C)c2cc(CN(CCn3ccc4oc(C(F)(F)F)cc4c3=O)Cc3cccnc3C)ccc21`, which melting point is on record?
A: The melting point was 132 to 134 °C.

Q: For `COc1ccc(S(=O)(=O)Nc2cccnc2/C=C/c2ccc(O)cc2)cc1`, which melting point is on record?
A: The melting point was 217 to 219 °C.

Q: For `CN1CCC(C2(O)c3ccccc3COc3cc(Cl)ccc32)CC1` (centres undefined), which melting point is on record?
A: Its melting point is 199 to 200 °C.

Q: Which melting point does the source give for `Cc1ccc(C(=O)Nc2ccc(CN3CCN(C)CC3)c(C(F)(F)F)c2)cc1C#Cc1ccc(NC2CCC2)nn1` here?
A: Its melting point is 120 to 121 °C.

Q: For `COc1ccc2c(Cc3c(Cl)cncc3Cl)nn3nnnc3c2c1`, which melting point is on record?
A: The melting point was 275 to 276 °C.

Q: With `Cc1nc2cccc(OCC(C)(C)NC(=O)c3cccc(O)c3)c2c(N)c1C(=O)O` as the molecule, how does the melting point read?
A: Its melting point is 195 to 198 °C.

Q: For `CCc1cnc(N2CCN(C(=O)c3cccc(Nc4ncnc5ccccc45)c3)CC2)nc1`, which melting point is on record?
A: Its melting point is 146 to 147 °C.

Q: For `CCCc1ccccc1OCCCCCOc1coc(C(=O)OC)cc1=O`, which melting point is on record?
A: Its melting point is 49 to 50 °C.

Q: With `Cn1cc(-c2ccc(C(=O)O)cn2)cn1` as the molecule, how does the melting point read?
A: Its melting point is 262 to 264 °C.

Q: With `Cc1oc(-c2ccccc2)nc1CCC(=O)c1ccc(C=C2SC(=O)NC2=O)nc1` as the molecule, how does the melting point read?
A: The melting point was 228 to 230 °C.

Q: Which melting point does the source give for `Cc1nc(C)c(-c2ccnc(Nc3cccc([N+](=O)[O-])c3)n2)s1` here?
A: Its melting point is 176 to 178 °C.

Q: For `CC(=CCCC(C)C1CCC2(C)C3=CCC4C(C)(CCC5(OCCO5)C4(C)C)C3=CCC12C)CO` (centres undefined), which melting point is on record?
A: Its melting point is 165 to 168 °C.

Q: For `COC(=O)c1ccc2cc(-c3ccccc3)[nH]c2c1`, which melting point is on record?
A: The melting point was 208 to 210 °C.

Q: For `CC(C)(C)c1ccc(C=NOCCCOc2ccc(CC(=O)O)cc2)cc1`, which melting point is on record?
A: The melting point was 56.2 to 59.2 °C.

Q: For `COc1ccc(NC2SC(=O)NC2=O)cc1` (centres undefined), which melting point is on record?
A: The melting point was 180 to 181 °C.

Q: With `Cc1nn2c(C=O)c(-c3ccccc3)nc2s1` as the molecule, how does the melting point read?
A: The melting point was 152 to 153 °C.

Q: For `CC1OCCn2c1nc(C(=O)O)c(OCc1ccccc1)c2=O` (centres undefined), which melting point is on record?
A: The melting point was 167 to 168 °C.

Q: For `CCCOc1nc2ccc(Br)cc2c(=O)n1CCC`, which melting point is on record?
A: Its melting point is 57 to 59 °C.

Q: For `CCOC(=O)COc1ccccc1Cn1c(-c2ccc(C(F)(F)F)cc2)c(C)c2cc(OCc3ccccc3)ccc21`, which melting point is on record?
A: Its melting point is 221 °C.

Q: Which melting point does the source give for `CCCCCCc1cccc(-c2cn(C)cc(-c3ccccc3)c2=O)c1` here?
A: The melting point was 93 to 95 °C.

Q: For `O=C(O)c1ccc2c(c1)S(=O)(=O)c1ccc(Cl)cc1C2=O`, which melting point is on record?
A: Its melting point is 352 to 355 °C.

Q: Which melting point does the source give for `COc1ccc(O)c2c1C(=O)N(Cc1ccccc1)S2=O` (centres undefined) here?
A: Its melting point is 235 to 237 °C.

Q: With `CCOC(=O)COc1ccc(Oc2ccc3cc(Cl)ccc3n2)cc1` as the molecule, how does the melting point read?
A: The melting point was 95 °C.

Q: With `CCNCC(=O)Nc1cccc2c1C(=O)c1c-2n[nH]c1-c1ccc(OC)cc1` as the molecule, how does the melting point read?
A: Its melting point is 250 °C.

Q: With `O=C1c2ccccc2C(=O)N1c1cccc(Br)c1` as the molecule, how does the melting point read?
A: Its melting point is 176 to 179 °C.

Q: With `CC(CC#N)Nc1cc(Oc2ccc(S(=O)(=O)C(C)C)cc2Cl)ccc1[N+](=O)[O-]` (centres undefined) as the molecule, how does the melting point read?
A: The melting point was 132 °C.

Q: For `COC(=O)c1cccc(C)c1N`, which melting point is on record?
A: The melting point was 27 to 29 °C.

Q: Which melting point does the source give for `NC(=O)OCC1COC(C(F)(F)Cl)(C(F)(F)Cl)O1` (centres undefined) here?
A: The melting point was 56 to 57 °C.

Q: Which melting point does the source give for `CC(C)(C)OC(=O)C(CCCCNC(=O)OCc1ccccc1)NC(=O)C(F)(F)F` (centres undefined) here?
A: The melting point was 77 to 79 °C.

Q: With `NC(=NCC(F)(F)F)Nc1ccnc(SCCN2C(=O)c3ccccc3C2=O)n1` as the molecule, how does the melting point read?
A: Its melting point is 192 to 195 °C.

Q: For `CCCOc1ccc(-c2ncc(C#N)cn2)cc1`, which melting point is on record?
A: The melting point was 193 to 194 °C.

Q: For `CCOC(=O)C(=NOCc1ccc(OCc2nc(-c3ccccc3)oc2C)cc1)c1ccc(OC)cc1`, which melting point is on record?
A: The melting point was 102 to 103 °C.

Q: Which melting point does the source give for `CCOC(=O)c1c(C)ccnc1Sc1nc(C)c(CC(=O)O)s1` here?
A: The melting point was 164 to 166 °C.

Q: Which melting point does the source give for `COc1ccc(C(=O)O)c2c1oc1ccc(Cl)cc12` here?
A: Its melting point is 264 to 276 °C.

Q: Which melting point does the source give for `CN(CCN(C)c1ccc(OS(=O)(=O)C(F)(F)F)nc1)c1ccc(OS(=O)(=O)C(F)(F)F)nc1` here?
A: The melting point was 146 to 148 °C.
